The structures appear in SMILES notation. Starred links: 1 amine or outer side, 2 acyl side, 3 side chain; linkers in the order of their positions; H or OH if unused. Positions of bridges follow the written chain, without caps; N, C: chain ends. Non-standard residues stand in square brackets, D forms with d. Residues, ends and D or L forms follow the SMILES beside them. Groups on a side chain read outwards from the residue. *: point of attachment. Me3N+(CH2)2O(CH2)2O(CH2)2CO = C[N+](C)(C)CCOCCOCCC(=O)*; CH2CH2OCH2CH2OCH2CH2NMe3+ = C[N+](C)(C)CCOCCOCC*; Trp(7-Me) = Cc1cccc2c(C[C@H](N)C(=O)O)c[nH]c12; Phe(4-CH2NH2) = NCc1ccc(C[C@H](N)C(=O)O)cc1; X71 = C[N+](C)(C)CC(F)(F)C(F)(F)C(F)(F)C*; γGlu = O=C(O)[C@H](CCC(=O)[*:2])N[*:1]; 2Nal = N[C@@H](Cc1ccc2ccccc2c1)C(=O)O; AEF = NCCOc1ccc(C[C@H](N)C(=O)O)cc1; dNMeY = CN[C@H](Cc1ccc(O)cc1)C(=O)O; 3Pal = N[C@@H](Cc1cccnc1)C(=O)O; Lys(Me) = CNCCCC[C@H](N)C(=O)O; NMeK = CN[C@@H](CCCCN)C(=O)O; Pen = CC(C)(S)[C@H](N)C(=O)O; αMeK = C[C@](N)(CCCCN)C(=O)O; Lauroyl = CCCCCCCCCCCC(=O)*; Nle = CCCC[C@H](N)C(=O)O; Thp = NC1(C(=O)O)CCOCC1; X3 = C[N+](C)(C)CCCCC*; AEEA = NCCOCCOCC(=O)O; Sar = CNCC(=O)O

The first experiment concerns the target T1, IL-23R (Homo sapiens, UniProt Q5VWK5).
T1 construct: host or cells: HEK293
T1 sequence (Q5VWK5 24-629): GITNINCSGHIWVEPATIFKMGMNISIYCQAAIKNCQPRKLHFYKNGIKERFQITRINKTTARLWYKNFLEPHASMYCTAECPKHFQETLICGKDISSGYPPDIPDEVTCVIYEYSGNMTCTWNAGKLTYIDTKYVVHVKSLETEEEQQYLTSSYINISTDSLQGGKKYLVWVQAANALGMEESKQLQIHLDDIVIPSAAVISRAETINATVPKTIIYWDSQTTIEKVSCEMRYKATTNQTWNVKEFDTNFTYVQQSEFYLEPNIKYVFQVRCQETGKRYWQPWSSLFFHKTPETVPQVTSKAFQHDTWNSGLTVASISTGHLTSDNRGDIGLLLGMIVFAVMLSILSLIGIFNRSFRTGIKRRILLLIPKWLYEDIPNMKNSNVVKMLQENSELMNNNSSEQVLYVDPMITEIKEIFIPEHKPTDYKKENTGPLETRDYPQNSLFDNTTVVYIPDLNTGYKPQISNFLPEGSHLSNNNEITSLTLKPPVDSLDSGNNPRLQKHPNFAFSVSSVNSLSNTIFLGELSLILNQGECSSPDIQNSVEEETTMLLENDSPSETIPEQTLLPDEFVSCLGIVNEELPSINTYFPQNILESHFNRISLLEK
Briefly: IL23R Reporter Assay. The following applies: HEK293 cells containing IL-23R, IL-12RP1 and STAT-inducible firefly luciferase reporter; 10 ng/mL IL-23 (EC90); 5 h at 37° C.; read-out: IL23R Reporter Assay. The class given is cell-based.
With `CCCCCCCCCCCC(=O)N[C@@H](CCC(=O)NCCOCCOCC(=O)NCCOCCOCC(=O)NCCCC[C@H](NC(=O)C1(NC(=O)[C@H](Cc2ccc3ccccc3c2)NC(=O)[C@H](Cc2ccc(OCCCCC[N+](C)(C)C)cc2)NC(=O)[C@H]2NC(=O)[C@H](CCCCNC(C)=O)NC(=O)[C@H](Cc3c[nH]c4c(C)cccc34)NC(=O)[C@H]([C@@H](C)O)NC(=O)[C@H](CC(=O)N(C)C)NC(=O)[C@@H](NC(=O)CCOCCOCC[N+](C)(C)C)C(C)(C)SSC2(C)C)CCOCC1)C(=O)N[C@@H](CC(N)=O)C(=O)N[C@@H](Cc1cccnc1)C(=O)N(C)[C@@H](CCCCNC(=O)COCCOCCNC(=O)COCCOCCNC(=O)CC[C@H](NC(=O)CCCCCCCCCCC)C(=O)O)C(N)=O)C(=O)O` [compound 353, cPEG3aCO-Pen(3)-N(N(Me)2)-T-7MeW-K(Ac)-Pen(3)-TMAPF-2Nal-THP-K(PEG2PEG2gEC12)-N-3Pya-NMeK(PEG2PEG2gEC12)-CONH2] ({Me3N+(CH2)2O(CH2)2O(CH2)2CO}-[Pen]D(NMe2)T[Trp(7-Me)]K(Ac)[Pen]Y(X3)[2Nal][Thp]K([AEEA-AEEA-γGlu-Lauroyl])N[3Pal][NMeK]([AEEA-AEEA-γGlu-Lauroyl])-NH2; disulfide 1-6), the IC50 amounted to 140 nM.

On to `CC(=O)NCCCC[C@H](NC(=O)[C@](C)(CCCCN)NC(=O)[C@H](Cc1ccc2ccccc2c1)NC(=O)[C@H](Cc1ccc(OCCN)cc1)NC(=O)[C@H]1NC(=O)[C@H](Cc2ccc(CNC(C)=O)cc2)NC(=O)[C@H](Cc2c[nH]c3c(C)cccc23)NC(=O)[C@H]([C@@H](C)O)NC(=O)[C@H](CC(N)=O)NC(=O)[C@@H](NC(C)=O)C(C)(C)SSC1(C)C)C(=O)N[C@@H](CC(N)=O)C(=O)N[C@H](CCCCN)C(=O)N(C)[C@H](Cc1ccc(O)cc1)C(N)=O` [compound 23, MeCO-Pen(3)-N-T-7MeW-Paf(Ac)-Pen(3)-AEF-2Nal-aMeK-K(Ac)-N-k-NMeDTyr-CONH2] (Ac-[Pen]NT[Trp(7-Me)][Phe(4-CH2NH2)](Ac)[Pen][AEF][2Nal][αMeK]K(Ac)N[dK][dNMeY]-NH2; disulfide 1-6), for which the IC50 amounted to 150 nM.

Take `CC(=O)NCCCC[C@@H]1NC(=O)[C@H](Cc2c[nH]c3c(C)cccc23)NC(=O)[C@H]([C@@H](C)O)NC(=O)[C@H](CC(N)=O)NC(=O)[C@@H](NC(C)=O)C(C)(C)SSC(C)(C)[C@@H](C(=O)N[C@@H](Cc2ccc(OCCCC[N+](C)(C)C)cc2)C(=O)N[C@@H](Cc2ccc3ccccc3c2)C(=O)NC2(C(=O)N[C@@H](CCC(=O)O)C(=O)N[C@@H](CC(N)=O)C(=O)N[C@@H](Cc3cccnc3)C(=O)N(C)CC(N)=O)CCOCC2)NC1=O` [compound 550, MeCO-Pen(3)-N-T-7MeW-K(Ac)-Pen(3)-TMA4F-2Nal-THP-N-3Pya-Sar-CONH2]: the IC50 came out at 5.5 nM.

As for `CCCCCCCCCCCC(=O)N[C@@H](CCC(=O)NCCOCCOCC(=O)NCCOCCOCC(=O)NCCCC[C@@H]1NC(=O)[C@@H](NC(=O)CCOCCOCC[N+](C)(C)C)C(C)(C)SSC(C)(C)[C@@H](C(=O)N[C@@H](Cc2ccc(OCCCCC[N+](C)(C)C)cc2)C(=O)N[C@@H](Cc2ccc3ccccc3c2)C(=O)NC2(C(=O)N[C@@H](CCCCN(C)C(C)=O)C(=O)N[C@@H](CC(N)=O)C(=O)N[C@@H](Cc3cccnc3)C(=O)N(C)CC(=O)N(C)C)CCOCC2)NC(=O)[C@H](CCCCN(C)C(C)=O)NC(=O)[C@H](Cc2c[nH]c3c(C)cccc23)NC(=O)[C@H]([C@@H](C)O)NC1=O)C(=O)O` [compound 387, cPEG3aCO-Pen(3)-K(PEG2PEG2gEC12)-T-7MeW-K(NMeAc)-Pen(3)-TMAPF-2Nal-THP-K(NMeAc)-N-3Pya-Sar-CON(Me)2] ({Me3N+(CH2)2O(CH2)2O(CH2)2CO}-[Pen]K([AEEA-AEEA-γGlu-Lauroyl])T[Trp(7-Me)][Lys(Me)](Ac)[Pen]Y(X3)[2Nal][Thp][Lys(Me)](Ac)N[3Pal][Sar]-NMe2; disulfide 1-6), the IC50 is 12 nM.

On to `CCCCCCCCCCCC(=O)N[C@@H](CCC(=O)NCCOCCOCC(=O)NCCOCCOCC(=O)NCCCC[C@@H](C(N)=O)N(C)C(=O)[C@H](Cc1cccnc1)NC(=O)[C@H](CC(N)=O)NC(=O)[C@H](CCCCN(C)C(C)=O)NC(=O)C1(NC(=O)[C@H](Cc2ccc3ccccc3c2)NC(=O)[C@H](Cc2ccc(OCCCCC[N+](C)(C)C)cc2)NC(=O)[C@H]2NC(=O)[C@H](CCCCNC(C)=O)NC(=O)[C@H](Cc3c[nH]c4c(C)cccc34)NC(=O)[C@H]([C@@H](C)O)NC(=O)[C@H](CC(=O)N(C)C)NC(=O)[C@@H](NC(=O)CCOCCOCC[N+](C)(C)C)C(C)(C)SSC2(C)C)CCOCC1)C(=O)O` [compound 313, cPEG3aCO-Pen(3)-N(N(Me)2)-T-7MeW-K(Ac)-Pen(3)-TMAPF-2Nal-THP-K(NMeaC)-N-3Pya-NMeK(PEG2PEG2gEC12)-CONH2] ({Me3N+(CH2)2O(CH2)2O(CH2)2CO}-[Pen]D(NMe2)T[Trp(7-Me)]K(Ac)[Pen]Y(X3)[2Nal][Thp][Lys(Me)](Ac)N[3Pal][NMeK]([AEEA-AEEA-γGlu-Lauroyl])-NH2; disulfide 1-6), for which the IC50 was found to be 4.2 nM.

With `CCCC[C@H](NC(=O)C1(NC(=O)[C@H](Cc2ccc3ccccc3c2)NC(=O)[C@H](Cc2ccc(OCCOCCOCC[N+](C)(C)C)cc2)NC(=O)[C@H]2NC(=O)[C@H](CCCCN(C)C(C)=O)NC(=O)[C@H](Cc3c[nH]c4c(C)cccc34)NC(=O)[C@H]([C@@H](C)O)NC(=O)[C@H](CC(=O)N(C)C)NC(=O)[C@@H](NC(=O)CCOCCOCC[N+](C)(C)C)C(C)(C)SSC2(C)C)CCOCC1)C(=O)N[C@@H](CC(N)=O)C(=O)N[C@@H](Cc1cccnc1)C(=O)N(C)CC(=O)N(C)C` [compound 520, cPEG3aCO-Pen(3)-N(N(Me)2)-T-7MeW-K(NMeAc)-Pen(3)-APEG3F-2Nal-THP-Nle-N-3Pya-Sar-CON(Me)2] ({Me3N+(CH2)2O(CH2)2O(CH2)2CO}-[Pen]D(NMe2)T[Trp(7-Me)][Lys(Me)](Ac)[Pen]Y(CH2CH2OCH2CH2OCH2CH2NMe3+)[2Nal][Thp][Nle]N[3Pal][Sar]-NMe2; disulfide 1-6), the IC50 turned out to be 1.4 nM.

As for `CC(=O)NCCCC[C@@H]1NC(=O)[C@H](Cc2c[nH]c3c(C)cccc23)NC(=O)[C@H]([C@@H](C)O)NC(=O)[C@H](CC(N)=O)NC(=O)[C@@H](NC(=O)CCOCCOCC[N+](C)(C)C)C(C)(C)SSC(C)(C)[C@@H](C(=O)N[C@@H](Cc2ccc(OC(F)F)cc2)C(=O)N[C@@H](Cc2ccc3ccccc3c2)C(=O)NC2(C(=O)N[C@@H](CCCCNC(C)=O)C(=O)N[C@@H](CC(N)=O)C(=O)N[C@@H](Cc3cccnc3)C(=O)N(C)CC(N)=O)CCOCC2)NC1=O` [compound 551, cPEG3aCO-Pen(3)-N-T-7MeW-K(Ac)-Pen(3)-YCF2H-2Nal-THP-K(Ac-N-3Pya-Sar-CONH2], the IC50 was determined as 5.5 nM.

The experiment is the same for the next values; noted with them: IL23R Reporter Assay (micromolar), HEK293 cells containing IL-23R, IL-12RP1 and STAT-inducible firefly luciferase reporter; 10 ng/mL IL-23 (EC90); 5 h at 37° C.
As to `CC(=O)N(C)CCCC[C@@H]1NC(=O)[C@H](Cc2c[nH]c3c(C)cccc23)NC(=O)[C@H]([C@@H](C)O)NC(=O)[C@H](CC(=O)N(C)C)NC(=O)[C@@H](NC(=O)CCOCCOCC[N+](C)(C)C)C(C)(C)SSC(C)(C)[C@@H](C(=O)N[C@@H](Cc2ccc(OCC(F)(F)C(F)(F)C(F)(F)C[N+](C)(C)C)cc2)C(=O)N[C@@H](Cc2ccc3ccccc3c2)C(=O)NC2(C(=O)N[C@@H](CCCCN(C)C(C)=O)C(=O)N[C@@H](CC(N)=O)C(=O)N[C@@H](Cc3cccnc3)C(=O)N(C)CC(=O)N(C)C)CCOCC2)NC1=O` [compound 338, cPEG3aCO-Pen(3)-N(N(Me)2)-T-7MeW-K(NMeAc)-Pen(3)-hFTMAPF-2Nal-THP-K(NMeAc)-N-3Pya-Sar-CON(Me)2] ({Me3N+(CH2)2O(CH2)2O(CH2)2CO}-[Pen]D(NMe2)T[Trp(7-Me)][Lys(Me)](Ac)[Pen]Y(X71)[2Nal][Thp][Lys(Me)](Ac)N[3Pal][Sar]-NMe2; disulfide 1-6), the IC50 stood at 1.6 nM.

Values taken from patent US20260022143A1, “Cyclic Peptide Inhibitors of IL-23” (JANSSEN PHARMACEUTICA NV, priority 2022, published 2026).
